# Experimental data: patent publication US9321849B2, “Uranium-chelating peptides and uses thereof” (priority 2003, dated 2016)
# Where two headings read alike, the source gives them in different places.
# Tests used:
# [1] = TRLS titration of uranyl nitrate with calmodulin, Dynafit simulation; assay type: binding; settings: 0.4 μM uranyl nitrate, 1.0 mM phosphate buffer pH 7.0, two-site simulation
# Protocol: (§1) The coordination of uranium (in uranyl form, 2.0 μM) by the native protein in 1 mM phosphate medium was also studied. The complexation of uranium with the protein is reflected by a drop in uranyl fluorescence intensity. The titration spectra are represented in FIG. 13. In another experiment, a 0.4 μM solution of uranyl nitrate in a 1.0 mM phosphate buffer (pH 7.0) was titrated with a solution of calmodulin up to a protein concentration of 8 μM. After the addition of 8 μM of calmodulin, calcium ions were added up to the concentration of 8 mM (FIG. 14). The values for the titration of uranyl by calmodulin were interpreted by simulating the experimental data with a system of equations corresponding to one, two, three or four independent sites for uranium (FIG. 16). The Dynafit software (Kuzmic, P. 1996, Anal. Biochem. 237, 260-273) was used for these simulations. […] The values for competition with the calcium ions were also interpreted with a system of suitable equations and the simulation of the experimental points with this system is given in FIG. 17. […] It is also considered, as a hypothesis, that each of these two sites is independent of the other. […]
# [2] = tested on: MLCKp peptide (calmodulin-binding domain of myosin light chain kinase); test: Tryptophan fluorescence of the MLCKp ligand peptide in the presence of calmodulin; design: species or system rabbit; settings: 5 μM MLCKp
# Protocol: The fluorescence spectra are recorded on a Cary Eclipse spectrometer (Varian, France) equipped with a thermostated cuvette holder. The excitation wavelength used is 280 nm with slot widths of 10 nm for excitation and of 2.5 nm for emission. The spectra are recorded between 300 nm and 450 nm in a cuvette with a 1 cm optical path.
# In the presence of calcium, calmodulin can bind and activate a large diversity of targets. Among these, the MLCKp peptide, which has 17 residues and is derived from the calmodulin-binding domain of a rabbit muscle myosin light chain kinase (CALBIOCHEM), has the following sequence:
# In a first series, a fluorescence spectrum for the tryptophan of the ligand, dissolved at a concentration of 5 μM in a 10 mM MES buffer, at pH 6.5, was recorded as described in example 1.
# Excitation of the solution at 280 nm makes it possible to detect an emission at 350 nm, characteristic of a tryptophan exposed to the aqueous solvent.
# This is compatible with a structure similar to that obtained in the case of calcium. […] The emission detected is then that of the metal (λ>450 nm) and no longer that of the tryptophan.
# [3] = Competition between calcium and uranyl for calmodulin, Dynafit simulation; assay type: binding; settings: 8 μM calmodulin, 0.4 μM uranyl, calcium up to 8 mM
# Protocol: as §1
substance,measurement,setting,value
calmodulin,Kd,"[1]; read-out: dissociation constant, uranyl, first of two high-affinity sites",3300 ± 400 nM
same,Kd,"[1]; read-out: dissociation constant, uranyl, second of two high-affinity sites",720 ± 200 nM
same,increase in intensity of ligand tryptophan fluorescence,"[2]; 10 mM MES pH 6.5, one equivalent of calmodulin, absence of metals",25%
same,increase in intensity of ligand tryptophan fluorescence,"[2]; one equivalent of calmodulin, 10 equivalents of calcium",20%
same,ligand tryptophan fluorescence in the presence of uranyl,"[2]; one equivalent of calmodulin, uranyl",complete extinction of the fluorescence
same,displacement of uranium by calcium,[3],just one of the two sites complexed with uranium is displaced by calcium
